Test results from patent publication US5925331A, “Technetium-99m labeled peptides for thrombus imaging” (Diatide, Inc., priority 1995, dated 1999).

Tested on: human platelets in platelet-rich plasma
Assay: Platelet aggregation inhibition assay (ADP-induced, platelet-rich plasma)
Format: cell-based
Conditions: fresh human platelet-rich plasma, 300,000 platelets per microliter; ADP 10 to 15 micromolar; read-out: IC50: concentration of reagent that inhibits by 50% the aggregation of human platelets in platelet-rich plasma induced by ADP
Protocol: Platelet aggregation studies were performed essentially as described by Zucker (1989, Methods in Enzymol. 169: 117-133). Briefly, platelet aggregation was assayed with or without putative platelet aggregation inhibitory compounds using fresh human platelet-rich plasma, comprising 300,000 platelets per microliter. Platelet aggregation was induced by the addition of a solution of adenosine diphosphate to a final concentration of 10 to 15 micromolar, and the extent of platelet aggregation monitored using a Bio/Data aggregometer (Bio/Data Corp., Horsham, Pa.). The concentrations of platelet aggregation inhibitory compounds used were varied from 0.1 to 500 μg/mL. The concentration of inhibitor that reduced the extent of platelet aggregation by 50% (defined as the IC50) was determined from plots of inhibitor concentration versus extent of platelet aggregation. An inhibition curve for peptide RGDS was determined for each batch of platelets tested as a positive control.

| IC50 [µM] | Compound |
| --- | --- |
| 8 | GRGDVRGDFKCAcm GCAcm amide [Peptide P97] |
| 0.5 | CC(=O)NCSC[C@H](NC(=O)CNC(=O)CNC(=O)[C@@H]1CSCC(=O)N[C@H](Cc2ccc(O)cc2)C(=O)N[C@@H](CSCCCN)C(=O)NCC(=O)N[C@@H](CC(=O)O)C(=O)N1)C(=O)NCC(=O)N[C@@H](CSCNC(C)=O)C(=O)NCC(=O)NCC(=O)N[C@H](Cc1ccccc1)C(=O)N1CCC[C@H]1C(=O)N[C@@H](CCCNC(=N)N)C(=O)N1CCC[C@H]1C(=O)NCC(N)=O [Peptide P245, CH2 CO--YD.Apc.GDCGGCAcm GCAcm GGFD PRPGamide] |
| 15 | GRDGVRGDFCAcm GCAcm amide [Peptide P98] |

| Compound | IC50 [µM] |
| --- | --- |
| (CH2 CO--YD ApcGDCKGCAcm GCAcm GGC-amide)2 --BSME [Peptide P381] | 0.035 |
